Experimental data: article PMC5483892 (Journal of Medicinal Chemistry, 2017)

Molecular target: ATX (full length human β form with a C-terminal 6-His tag) (Homo sapiens, UniProt Q13822)
Format: biochemical
Conditions: for LE (ligand efficiency): LE = −RTpKi/nb heavy atoms; for LE (ligand efficiency) / LLE (lipophilic ligand efficiency): from concentration response pIC50; for LLE (lipophilic ligand efficiency): LLE = pIC50 – cLogP; for affinities within fold of each other: BAL hits 16, 19 and 22 compared with each other

| Compound | LE (ligand efficiency) | LLE (lipophilic ligand efficiency) | affinities within fold of each other [fold] | increase in potency (relative to phenyl boronic acid 14) [fold] | more potent than 18 (relative to 18) [fold] |
| --- | --- | --- | --- | --- | --- |
| O=C(O)c1ccc2cc[nH]c2c1 [Compound 2] | 0.35 | 2.8 | – | – | – |
| OB(O)c1ccc2nonc2c1 [Compound 3] | 0.57 | 3.8 | – | – | – |
| Oc1ccc2nonc2c1 [Compound 4] | 0.50 | 3.5 | – | – | – |
| NCc1cccc(O)c1 [Compound 6] | 0.44 | 2.8 | – | – | – |
| Nc1cccc(-c2nnc[nH]2)c1 [Compound 8] | 0.41 | 3.4 | – | – | – |
| Oc1ccc(-n2ccnc2)cc1 [Compound 10] | 0.37 | 2.5 | – | – | – |
| CS(=O)(=O)c1ccc(O)cc1 [Compound 12] | 0.40 | 2.9 | – | – | – |
| OB(O)c1ccccc1OCc1cccc(Cl)c1 [Compound 16] | 0.45 | 3.5 | ≤ 3 | 10 | – |

Other lines, results leading:

| LE (ligand efficiency) | LLE (lipophilic ligand efficiency) | affinities within fold of each other [fold] | increase in potency (relative to phenyl boronic acid 14) [fold] | more potent than 18 (relative to 18) [fold] | Compound |
| --- | --- | --- | --- | --- | --- |
| 0.65 | 4.4 | – | – | – | OB(O)c1ccc2cc[nH]c2c1 [Compound 1] |
| 0.68 | 3.7 | – | – | – | OB(O)c1cccc(O)c1 [Compound 5] |
| 0.68 | 3.7 | – | – | – | OB(O)c1ccc(O)cc1 [Compound 9] |
| 0.55 | 4.9 | – | – | – | CS(=O)(=O)c1ccc(B(O)O)cc1 [Compound 11] |
| 0.66 | 3.6 | – | – | – | COc1ccc(B(O)O)cc1 [Compound 13] |
| 0.76 | 3.7 | – | – | – | OB(O)c1ccccc1 [Compound 14, phenyl boronic acid] |
| 0.67 | 3.8 | – | – | – | COc1ccccc1B(O)O [Compound 15] |
| 0.58 | 2.9 | – | – | – | COc1cccc(B(O)O)c1 [Compound 17] |
| – | 3.6 | – | – | – | OCc1cccc(B(O)O)c1 [Compound 18] |
| 0.41 | 3.3 | ≤ 3 | – | 25 | COCCc1ccc(OCc2cccc(B(O)O)c2)cc1 [Compound 19] |
| 0.66 | – | – | – | – | N#Cc1ccc(B(O)O)cc1 [Compound 21] |
| 0.40 | 3.4 | ≤ 3 | – | – | COc1cc(COc2ccc(B(O)O)cc2Cl)cc(OC)c1 [Compound 22] |
| 0.58 | – | – | – | – | N#Cc1cccc(B(O)O)c1 [Compound 26] |
